Data published in patent US4742053A, “3-Isoquinoliniomethyl cephalosporin derivatives” (Banyu Pharmaceutical Co., Ltd., priority 1984, dated 1988).
In brackets after ≈: the same amount, converted by molar mass. Read-outs that look alike come from different tables or passages of the source.

Tests used:
Test in all cases: MIC by agar plate dilution method
Type in all cases: cell-based
[1] = test system: E. coli CSH2; settings: Escherichia coli, 10^6 CFU/ml, read-out: Minimum Inhibitory Concentration
Procedure: (§1) The minimum inhibitory concentrations (MIC: μg/ml) of the compounds of the present invention against various microorganisms were measured by an agar plate dilution method (inoculum size: 10^6 CFU/ml) by using Sensitivity Disk Agar (Nissui) in comparison with Cefotaxime and Ceftazidime as comparative compounds.
(§2) Minimum Inhibitory Concentration (μg/ml; 10^6 CFU/ml)

[2] = test system: P. aeruginosa AKR17; settings: Pseudomonas aeruginosa, AKR17, P. aeruginosa AKR17; 10^6 CFU/ml; read-out: Minimum Inhibitory Concentration
Procedure: as §1, §2

[3] = test system: E. coli ML1410/Rte16; settings: Escherichia coli, ML1410/RTE16, read-out: Minimum Inhibitory Concentration, E. coli ML1410/Rte16; 10^6 CFU/ml
Procedure: as §1, §2

[4] = test system: E. coli W3630/Rms213; settings: Escherichia coli, W3630/RMS213, read-out: Minimum Inhibitory Concentration, E. coli W3630/Rms213; 10^6 CFU/ml
Procedure: as §1, §2

[5] = test system: K. pneumoniae No. 42; settings: Klebsiella pneumoniae
Procedure: as §1, §2

[6] = test system: E. coli CSH; settings: Escherichia coli, 10^6 CFU/ml, read-out: Minimum Inhibitory Concentration
Procedure: as §1, §2

[7] = test system: P. vulgaris OB1043; settings: Proteus vulgaris
Procedure: as §1, §2

[8] = test system: E. coli NIHJJC-2; settings: Escherichia coli, NIHJJC2, E. coli NIHJJC-2; 10^6 CFU/ml; read-out: Minimum Inhibitory Concentration
Procedure: as §1, §2

[9] = test system: P. mirabilis JY10; settings: Proteus mirabilis
Procedure: as §1, §2

[10] = test system: E. cloaceae Nek 39; settings: E. cloaceae Nek 39; 10^6 CFU/ml; read-out: Minimum Inhibitory Concentration
Procedure: as §1, §2

[11] = test system: P. cepacia 23; settings: Burkholderia cepacia; P. cepacia 23; 10^6 CFU/ml; read-out: Minimum Inhibitory Concentration
Procedure: as §1, §2

[12] = test system: P. maltophilia IID 1275; settings: Stenotrophomonas maltophilia, IID1275; P. maltophilia IID 1275; 10^6 CFU/ml; read-out: Minimum Inhibitory Concentration
Procedure: as §1, §2

[13] = test system: A. calcoaceticus No. 14; settings: Acinetobacter calcoaceticus, NO.14, A. calcoaceticus No. 14; 10^6 CFU/ml; read-out: Minimum Inhibitory Concentration
Procedure: as §1, §2

[14] = test system: P. vulgaris No. 33; settings: Proteus vulgaris; P. vulgaris No. 33; 10^6 CFU/ml; read-out: Minimum Inhibitory Concentration
Procedure: as §1, §2

[15] = test system: S. aureus JS-1; settings: Staphylococcus aureus, JS1; S. aureus JS-1; 10^6 CFU/ml; read-out: Minimum Inhibitory Concentration
Procedure: as §1, §2

[16] = test system: C. freundii No. 7; settings: Citrobacter freundii; C. freundii No. 7; 10^6 CFU/ml; read-out: Minimum Inhibitory Concentration
Procedure: as §1, §2

[17] = test system: S. marcescens No. 16-2; settings: Serratia marcescens, NO.162; S. marcescens No. 16-2; 10^6 CFU/ml; read-out: Minimum Inhibitory Concentration
Procedure: as §1, §2

[18] = test system: P. aeruginosa AK109; settings: Pseudomonas aeruginosa, AK109, P. aeruginosa AK109; 10^6 CFU/ml; read-out: Minimum Inhibitory Concentration
Procedure: as §1, §2

[19] = test system: E. coli W3630/Rms212; settings: Escherichia coli, W3630/RMS212, read-out: Minimum Inhibitory Concentration, E. coli W3630/Rms212; 10^6 CFU/ml
Procedure: as §1, §2

[20] = test system: E. coli C/Rms149; settings: Escherichia coli, read-out: Minimum Inhibitory Concentration, E. coli C/Rms149; 10^6 CFU/ml
Procedure: as §1, §2

[21] = test system: S. aureus NIHJJC-1; settings: Staphylococcus aureus, NIHJJC1, S. aureus NIHJJC-1; 10^6 CFU/ml; read-out: Minimum Inhibitory Concentration
Procedure: as §1, §2

[22] = K. pneumoniae No. 42, 10^6 CFU/ml, read-out: Minimum Inhibitory Concentration
[23] = P. mirabilis JY10, 10^6 CFU/ml, read-out: Minimum Inhibitory Concentration
[24] = OB1043, P. vulgaris OB1043, 10^6 CFU/ml, read-out: Minimum Inhibitory Concentration

| Structure (SMILES) | MIC [1] [µg/mL] | MIC [2] [µg/mL] | MIC [3] [µg/mL] | MIC [4] [µg/mL] | MIC [5, 22] [µg/mL] | MIC [6] [µg/mL] | MIC [8] [µg/mL] | MIC [9, 23] [µg/mL] | MIC [10] [µg/mL] | MIC [11] [µg/mL] | MIC [12] [µg/mL] | MIC [13] [µg/mL] | MIC [14] [µg/mL] | MIC [15] [µg/mL] | MIC [16] [µg/mL] | MIC [17] [µg/mL] | MIC [18] [µg/mL] | MIC [19] [µg/mL] | MIC [20] [µg/mL] | MIC [21] [µg/mL] | other results |
| --- | --- | --- | --- | --- | --- | --- | --- | --- | --- | --- | --- | --- | --- | --- | --- | --- | --- | --- | --- | --- | --- |
| CO/N=C(\C(=O)NC1C(=O)N2C(C(=O)[O-])=C(C[N+]3(C)CCc4cc(O)ccc4C3)CSC12)c1csc(N)n1 (stereo not drawn) [Ex. 10, 7-[(Z)-2-(2-aminothiazol-4-yl)-2-methoxyiminoacetamido]-3-(6-hydroxy-2-methyl-1,2,3,4-tetrahydro-2-isoquinolinium)methyl-3-cephem-4-carboxylate] | ≤ 0.05 | > 25 | 0.1 (≈ 0.179 µM) | 1.56 (≈ 2.79 µM) | 0.2 (≈ 0.358 µM) | 0.78 (≈ 1.4 µM) | 0.1 (≈ 0.179 µM) | 0.78 (≈ 1.4 µM) | 0.78 (≈ 1.4 µM) | 6.25 (≈ 11.2 µM) | > 25 | 25 (≈ 44.8 µM) | 0.1 (≈ 0.179 µM) | 6.25 (≈ 11.2 µM) | 1.56 (≈ 2.79 µM) | 6.25 (≈ 11.2 µM) | 1.56 (≈ 2.79 µM) | 0.2 (≈ 0.358 µM) | 0.1 (≈ 0.179 µM) | 0.39 (≈ 0.698 µM) | MIC ([7]; OB1043, read-out: Minimum Inhibitory Concentration): 0.39 µg/mL (≈ 0.698 µM) |
| CON=C(C(=O)NC1C(=O)N2C(C(=O)[O-])=C(C[N+]3(C)CCc4c(ccc(O)c4O)C3)CSC12)c1csc(N)n1 (stereo not drawn) [Ex. 11, 7-[(Z)-2-(2-aminothiazol-4-yl)-2-methoxyiminoacetamido]-3-(5,6-dihydroxy-2-methyl-1,2,3,4-tetrahydro-2-isoquinolinium)methyl-3-cephem-4-carboxylate] | 0.39 (≈ 0.679 µM) | 6.25 (≈ 10.9 µM) | 0.1 (≈ 0.174 µM) | 0.78 (≈ 1.36 µM) | – | 0.78 (≈ 1.36 µM) | 0.05 (≈ 0.087 µM) | – | 0.025 (≈ 0.0435 µM) | 0.2 (≈ 0.348 µM) | > 50 | 0.39 (≈ 0.679 µM) | 0.2 (≈ 0.348 µM) | 25 (≈ 43.5 µM) | 12.5 (≈ 21.8 µM) | 12.5 (≈ 21.8 µM) | 0.2 (≈ 0.348 µM) | 0.025 (≈ 0.0435 µM) | 0.1 (≈ 0.174 µM) | 6.25 (≈ 10.9 µM) | MIC ([5]; NO.42, read-out: Minimum Inhibitory Concentration): 0.39 µg/mL (≈ 0.679 µM); MIC [7, 24]: 1.56 µg/mL (≈ 2.71 µM); MIC ([9]; JY10, read-out: Minimum Inhibitory Concentration): 0.39 µg/mL (≈ 0.679 µM) |
| CON=C(C(=O)NC1C(=O)N2C(C(=O)[O-])=C(C[N+]3(C)CCc4cc(O)c(O)c(O)c4C3)CSC12)c1csc(N)n1 (stereo not drawn) [Ex. 12, 7-[(Z)-2-(2-aminothiazol-4-yl)-2-methoxyiminoacetamido]-3-(2-methyl-1,2,3,4-tetrahydro-6,7,8-trihydroxy-2-isoquinolinium)methyl-3-cephem-4-carboxylate] | 1.56 (≈ 2.64 µM) | 50 (≈ 84.7 µM) | 1.56 (≈ 2.64 µM) | 3.12 (≈ 5.28 µM) | 1.56 (≈ 2.64 µM) | 3.12 (≈ 5.28 µM) | 0.78 (≈ 1.32 µM) | 0.78 (≈ 1.32 µM) | 1.56 (≈ 2.64 µM) | 1.56 (≈ 2.64 µM) | 100 (≈ 169 µM) | 25 (≈ 42.3 µM) | 1.56 (≈ 2.64 µM) | 50 (≈ 84.7 µM) | 12.5 (≈ 21.2 µM) | 100 (≈ 169 µM) | 25 (≈ 42.3 µM) | 0.78 (≈ 1.32 µM) | 0.78 (≈ 1.32 µM) | 25 (≈ 42.3 µM) | MIC [7, 24]: 3.12 µg/mL (≈ 5.28 µM) |
